From ChEMBL document CHEMBL5143587, “Antitumor Effect of Manool in a Murine Melanoma Model” (J Nat Prod, 2022)
Active and inactive are the calls of the source. The calls are words filed in the database; no cut-off is given here.

Experiments:
[1] = Genotoxicity in C57BL/6 mouse xenografted with mouse B16-F10 cells assessed as ratio of polychromatic erythrocytes to total erythrocytes in bone marrow cells at 20 mg/kg, sc for consecutive 5 days (reference value: 0.60 +/-0.01); type: toxicity, organism-based; settings: in vivo, 120 h, time 5 day
[2] = Toxicity in C57BL/6 mouse xenografted with mouse B16-F10 cells assessed as change in heart weight at 20 to 40 mg/kg, sc administered once daily for consecutive 5 days relative to control; type: organism-based; settings: in vivo, 120 h, dose 20-40 mg/kg, time 5 day
[3] = Genotoxicity in C57BL/6 mouse xenografted with mouse B16-F10 cells assessed as ratio of polychromatic erythrocytes to total erythrocytes in bone marrow cells at 20 mg/kg, ip for consecutive 5 days (reference value: 0.91+/-0.01); type: toxicity, organism-based; settings: in vivo, 120 h, time 5 day
[4] = Toxicity in C57BL/6 mouse xenografted with mouse B16-F10 cells assessed as change in kidney weight at 20 to 40 mg/kg, ip administered once daily for consecutive 5 days relative to control; type: organism-based; settings: in vivo, 120 h, dose 20-40 mg/kg, time 5 day
[5] = Toxicity in C57BL/6 mouse xenografted with mouse B16-F10 cells assessed as splenomegaly at 40 mg/kg, po administered once daily for consecutive 5 days; type: organism-based; settings: in vivo, 120 h, time 5 day
[6] = Genotoxicity in C57BL/6 mouse xenografted with mouse B16-F10 cells assessed as ratio of polychromatic erythrocytes to total erythrocytes in bone marrow cells at 20 mg/kg, po for consecutive 5 days (reference value: 0.90 +/-0.04); type: toxicity, organism-based; settings: in vivo, 120 h, time 5 day
[7] = Toxicity in C57BL/6 mouse xenografted with mouse B16-F10 cells assessed as change in lung weight at 20 to 40 mg/kg, ip administered once daily for consecutive 5 days relative to control; type: organism-based; settings: in vivo, 120 h, dose 20-40 mg/kg, time 5 day
[8] = Toxicity in C57BL/6 mouse xenografted with mouse B16-F10 cells assessed as change in lung weight at 20 to 40 mg/kg, po administered once daily for consecutive 5 days relative to control; type: organism-based; settings: in vivo, 120 h, dose 20-40 mg/kg, time 5 day
B16-F10 [9] = assay: Antitumor activity against mouse B16-F10 cells bearing C57BL/6 mouse assessed as reduction in tumor weight at 20 mg/kg, po administered once daily for consecutive 5 days in presence of cisplatin relative to control; type: functional; design: scale not given: the % may be the effect or the level left; settings: time 5 day
[10] = Toxicity in C57BL/6 mouse xenografted with mouse B16-F10 cells assessed as change in lung weight at 20 to 40 mg/kg, sc administered once daily for consecutive 5 days relative to control; type: organism-based; settings: in vivo, 120 h, dose 20-40 mg/kg, time 5 day
[11] = Genotoxicity in C57BL/6 mouse xenografted with mouse B16-F10 cells assessed as micronucleated polychromatic erythrocytes frequency in bone marrow cells at 40 mg/kg, ip for consecutive 5 days (reference value: 8.00); type: toxicity, organism-based; settings: in vivo, 120 h, time 5 day
B16-F10 [12] = assay: Antitumor activity against mouse B16-F10 cells bearing C57BL/6 mouse assessed as reduction in number of mitotic figures at 20 mg/kg, po administered once daily for consecutive 5 days in presence of cisplatin by H and E staining microscopic analysis; type: functional, organism-based; settings: time 5.0 day
B16-F10 [13] = assay: Antitumor activity against mouse B16-F10 cells bearing C57BL/6 mouse assessed as reduction in tumor weight at 20 mg/kg, po administered once daily for consecutive 5 days relative to control; type: functional; design: scale not given: the % may be the effect or the level left; settings: time 5 day
[14] = Toxicity in C57BL/6 mouse xenografted with mouse B16-F10 cells assessed as change in body weight at 20 to 40 mg/kg, ip administered once daily for consecutive 5 days; type: organism-based; settings: in vivo, 120 h, dose 20-40 mg/kg, time 5 day
B16-F10 [15] = assay: Antitumor activity against mouse B16-F10 cells bearing C57BL/6 mouse assessed as reduction in tumor weight at 40 mg/kg, ip administered once daily for consecutive 5 days relative to control (reference value: 71.1%); type: functional; design: scale not given: the % may be the effect or the level left; settings: time 5 day
[16] = Toxicity in C57BL/6 mouse xenografted with mouse B16-F10 cells assessed as change in heart weight at 20 to 40 mg/kg, ip administered once daily for consecutive 5 days relative to control; type: organism-based; settings: in vivo, 120 h, dose 20-40 mg/kg, time 5 day
[17] = Genotoxicity in C57BL/6 mouse xenografted with mouse B16-F10 cells assessed as micronucleated polychromatic erythrocytes frequency in bone marrow cells at 20 mg/kg, po for consecutive 5 days (reference value: 6.00 +/-1.00); type: toxicity, organism-based; settings: in vivo, 120 h, time 5 day
[18] = Toxicity in C57BL/6 mouse xenografted with mouse B16-F10 cells assessed as reduction in spleen weight at 20 mg/kg, sc administered once daily for consecutive 5 days; type: organism-based; settings: in vivo, 120 h, time 5 day
[19] = Toxicity in C57BL/6 mouse xenografted with mouse B16-F10 cells assessed as reduction in spleen weight at 20 mg/kg, po administered once daily for consecutive 5 days; type: organism-based; settings: in vivo, 120 h, time 5 day
[20] = Toxicity in C57BL/6 mouse xenografted with mouse B16-F10 cells assessed as body weight loss at 20 mg/kg, po administered once daily for consecutive 5 days in presence of cisplatin relative to control; type: organism-based; settings: in vivo, 120 h, time 5 day
[21] = Toxicity in C57BL/6 mouse xenografted with mouse B16-F10 cells assessed as change in body weight at 20 to 40 mg/kg, po administered once daily for consecutive 5 days; type: organism-based; settings: in vivo, 120 h, dose 20-40 mg/kg, time 5 day
[22] = Genotoxicity in C57BL/6 mouse xenografted with mouse B16-F10 cells assessed as micronucleated polychromatic erythrocytes frequency in bone marrow cells at 40 mg/kg, sc for consecutive 5 days (reference value: 10.00 +/-2.00); type: toxicity, organism-based; settings: in vivo, 120 h, time 5 day
[23] = Genotoxicity in C57BL/6 mouse xenografted with mouse B16-F10 cells assessed as ratio of polychromatic erythrocytes to total erythrocytes in bone marrow cells at 40 mg/kg, ip for consecutive 5 days (reference value: 0.91+/-0.01); type: toxicity, organism-based; settings: in vivo, 120 h, time 5 day
[24] = Toxicity in C57BL/6 mouse xenografted with mouse B16-F10 cells assessed as splenomegaly at 20 mg/kg, ip administered once daily for consecutive 5 days; type: organism-based; settings: in vivo, 120 h, time 5 day
B16-F10 [25] = assay: Antitumor activity against mouse B16-F10 cells bearing C57BL/6 mouse assessed as reduction in tumor weight at 40 mg/kg, po administered once daily for consecutive 5 days relative to control; type: functional; design: scale not given: the % may be the effect or the level left; settings: time 5 day
[26] = Toxicity in C57BL/6 mouse xenografted with mouse B16-F10 cells assessed as change in body weight at 20 to 40 mg/kg, sc administered once daily for consecutive 5 days; type: organism-based; settings: in vivo, 120 h, dose 20-40 mg/kg, time 5 day
[27] = Toxicity in C57BL/6 mouse xenografted with mouse B16-F10 cells assessed as change in kidney weight at 20 to 40 mg/kg, po administered once daily for consecutive 5 days relative to control; type: organism-based; settings: in vivo, 120 h, dose 20-40 mg/kg, time 5 day
B16-F10 [28] = assay: Antitumor activity against mouse B16-F10 cells bearing C57BL/6 mouse assessed as reduction in tumor weight at 20 mg/kg, sc administered once daily for consecutive 5 days relative to control (reference value: 50.7%); type: functional; design: scale not given: the % may be the effect or the level left; settings: time 5 day
[29] = Toxicity in C57BL/6 mouse xenografted with mouse B16-F10 cells assessed as splenomegaly at 40 mg/kg, sc administered once daily for consecutive 5 days; type: organism-based; settings: in vivo, 120 h, time 5 day
[30] = Genotoxicity in C57BL/6 mouse xenografted with mouse B16-F10 cells assessed as ratio of polychromatic erythrocytes to total erythrocytes in bone marrow cells at 40 mg/kg, po for consecutive 5 days (reference value: 0.90 +/-0.04); type: toxicity, organism-based; settings: in vivo, 120 h, time 5 day
[31] = Toxicity in C57BL/6 mouse xenografted with mouse B16-F10 cells assessed as change in heart weight at 20 to 40 mg/kg, po administered once daily for consecutive 5 days relative to control; type: organism-based; settings: in vivo, 120 h, dose 20-40 mg/kg, time 5 day
[32] = Toxicity in C57BL/6 mouse xenografted with mouse B16-F10 cells assessed as splenomegaly at 40 mg/kg, ip administered once daily for consecutive 5 days; type: organism-based; settings: in vivo, 120 h, time 5 day
[33] = Genotoxicity in C57BL/6 mouse xenografted with mouse B16-F10 cells assessed as micronucleated polychromatic erythrocytes frequency in bone marrow cells at 20 mg/kg, sc for consecutive 5 days (reference value: 10.00 +/-2.00); type: toxicity, organism-based; settings: in vivo, 120 h, time 5 day
[34] = Toxicity in C57BL/6 mouse xenografted with mouse B16-F10 cells assessed as change in kidney weight at 20 to 40 mg/kg, sc administered once daily for consecutive 5 days relative to control; type: organism-based; settings: in vivo, 120 h, dose 20-40 mg/kg, time 5 day
B16-F10 [35] = assay: Antitumor activity against mouse B16-F10 cells bearing C57BL/6 mouse assessed as reduction in mitotic figures at 40 mg/kg, ip administered once daily for consecutive 5 days by H and E staining microscopic analysis; type: functional, organism-based; settings: time 5.0 day
[36] = Toxicity in C57BL/6 mouse xenografted with mouse B16-F10 cells assessed as reduction in spleen weight at 20 mg/kg, ip administered once daily for consecutive 5 days; type: organism-based; settings: in vivo, 120 h, time 5 day
[37] = Genotoxicity in C57BL/6 mouse xenografted with mouse B16-F10 cells assessed as micronucleated polychromatic erythrocytes frequency in bone marrow cells at 20 mg/kg, ip for consecutive 5 days (reference value: 8.00); type: toxicity, organism-based; settings: in vivo, 120 h, time 5 day
[38] = Genotoxicity in C57BL/6 mouse xenografted with mouse B16-F10 cells assessed as ratio of polychromatic erythrocytes to total erythrocytes in bone marrow cells at 40 mg/kg, sc for consecutive 5 days (reference value: 0.60 +/-0.01); type: toxicity, organism-based; settings: in vivo, 120 h, time 5 day
B16-F10 [39] = assay: Antitumor activity against mouse B16-F10 cells bearing C57BL/6 mouse assessed as reduction in tumor weight at 20 mg/kg, ip administered once daily for consecutive 5 days relative to control (reference value: 71.1%); type: functional; design: scale not given: the % may be the effect or the level left; settings: time 5 day
[40] = Genotoxicity in C57BL/6 mouse xenografted with mouse B16-F10 cells assessed as micronucleated polychromatic erythrocytes frequency in bone marrow cells at 40 mg/kg, po for consecutive 5 days (reference value: 6.00 +/-1.00); type: toxicity, organism-based; settings: in vivo, 120 h, time 5 day

Question: Which Ratio [1] does the source give for `C=C[C@](C)(O)CC[C@H]1C(=C)CC[C@H]2C(C)(C)CCC[C@]12C` here?
Answer: 0.85

Question: What about the Activity [2] of the same molecule?
Answer: Non-Toxic

Question: And the Ratio [3]?
Answer: 0.82

Question: And the Activity [4]?
Answer: Non-Toxic

Question: What about the Activity [5] of the same molecule?
Answer: Toxic

Question: And the Ratio [6]?
Answer: 0.92

Question: What about the Activity [7] of the same molecule?
Answer: Non-Toxic

Question: What about the Activity [8] of the same molecule?
Answer: Non-Toxic

Question: What about the Activity (B16-F10 [9]) of the same molecule?
Answer: 86.7%

Question: What about the Activity [10] of the same molecule?
Answer: Non-Toxic

Question: What about the Activity [11] of the same molecule?
Answer: 4.33

Question: And the Activity (B16-F10 [12])?
Answer: Active

Question: And the Activity (B16-F10 [13])?
Answer: 62.4%

Question: What about the Activity [14] of the same molecule?
Answer: Non-Toxic

Question: And the Activity (B16-F10 [15])?
Answer: 64.9%

Question: What about the Activity [16] of the same molecule?
Answer: Non-Toxic

Question: And the Activity [17]?
Answer: 8

Question: What about the Activity [18] of the same molecule?
Answer: Non-Toxic

Question: And the Activity [19]?
Answer: Non-Toxic

Question: What about the Activity [20] of the same molecule?
Answer: Toxic

Question: What about the Activity [21] of the same molecule?
Answer: Non-Toxic

Question: And the Activity [22]?
Answer: 7.33

Question: And the Ratio [23]?
Answer: 0.83

Question: And the Activity [24]?
Answer: Toxic

Question: What about the Activity (B16-F10 [25]) of the same molecule?
Answer: 9.3%

Question: And the Activity [26]?
Answer: Non-Toxic

Question: What about the Activity [27] of the same molecule?
Answer: Non-Toxic

Question: And the Activity (B16-F10 [28])?
Answer: 38.8%

Question: And the Activity [29]?
Answer: Toxic

Question: And the Ratio [30]?
Answer: 0.9

Question: What about the Activity [31] of the same molecule?
Answer: Non-Toxic

Question: What about the Activity [32] of the same molecule?
Answer: Toxic

Question: And the Activity [33]?
Answer: 6

Question: And the Activity [34]?
Answer: Non-Toxic

Question: And the Activity (B16-F10 [35])?
Answer: Active

Question: What about the Activity [36] of the same molecule?
Answer: Toxic

Question: What about the Activity [37] of the same molecule?
Answer: 5.67

Question: What about the Ratio [38] of the same molecule?
Answer: 0.85

Question: What about the Activity (B16-F10 [39]) of the same molecule?
Answer: 48.5%

Question: What about the Activity [40] of the same molecule?
Answer: 6
